Data from patent US20260200925A1, “SMALL MOLECULE INHIBITORS OF KRAS MUTATED PROTEINS” (MERCK SHARP & DOHME LLC, priority 2021, published 2026).
Structures can show the parent of a compound that is named as a salt.

Experiments:
[1] = molecular target: G13D (Homo sapiens, UniProt P01116, G13D); assay: Guanine nucleotide exchange (GNE) assay, G13D; format: biochemical
Experimental: (§1) The TR-FRET signal is measured on an Envision (PerkinElmer) plate reader: Excitation filter=340 nm; emission 1=495 nm; emission 2=520 nm; dichroic mirror=D400/D505; delay time=100 ms. The signal of each well is determined as the ratio of the emission at 520 nm to that at 495 nm. […] The apparent effect as a function of compound concentration is fit to a four-parameter logistic equation to calculate IC50 values using Spotfire software.

[2] = system: AsPC-1 cells containing homozygous KRAS-G12D activating mutation (p-ERK); details: Homo sapiens, ASPC1, 2 h, read-out: KRAS G12D ASPC-1 IC50 (nM)
Experimental: Procedure for Cellular Phospho-ERK Assay, G12D
AsPC-1 cells (ATCC® CRL-1682™), containing homozygous KRAS-G12D activating mutation, were cultured in T150 flask in growth medium (RPMI medium 1640-GlutaMAX™—I (ThermoFisher Scientific 61870) containing 10% fetal bovine serum (ThermoFisher Scientific 10091148)). The cells were harvested in growth medium after TrypLE (ThermoFisher scientific 12604021) digestion and were seeded in a 384-well collagen coated cell culture plate (Corning 356702) at a density of 15,000 cells/well, and incubated at 37° C., 5% CO2 overnight. […] RPMI medium 1640-GlutaMAX™—I was added to the intermediate plate and the contents of the intermediate plate were then transferred to the 384-well collagen coated cell culture plate, which was incubated at 37° C., 5% CO2 for 2 hours. After removal of medium from the collagen coated cell culture plate, cells were lysed in lysis buffer from Alpha SureFire® Ultra™ Multiplex p-ERK and total ERK assay kit (PerkinElmer MPSU-PTERK) containing Halt™ Protease and Phosphatase inhibitor cocktail (ThermoFisher Scientific 78446) at room temperature with constant shaking at 300 rpm for 30 minutes. The cell lysates were then transferred to an OptiPlate-384 plate (PerkinElmer 6005620), and the phosphorylation of ERK (p-ERK) and total ERK levels were detected by Alpha SureFire® Ultra™ Multiplex p-ERK kit and total ERK assay kit (PerkinElmer MPSU-PTERK) following the manufacturer's protocol. Assay plates were read on a EnVision Multimode Plate Reader (PerkinElmer), and the ratio of p-ERK vs. total ERK in each well was used as the final readout. Dose response curves were analyzed using a 4-parameter logistic model to calculate IC50 values using Spotfire software.

[3] = molecular target: Recombinant KRAS-G12D (SEQ ID NO: 2) (Homo sapiens, UniProt P01116, G12D); assay: SOS-catalyzed guanine nucleotide exchange (GNE) assay, KRAS-G12D
Experimental: (§2) Specifically, the SOS-catalyzed nucleotide exchange assay utilizes a preformed time-resolved fluorescence resonance energy transfer (TR-FRET) complex containing a specific biotinylated RAS protein (KRAS-G12C/V/D, HRAS, NRAS; described above) with BODIPY-GDP, and Terbium-streptavidin. Test compounds are preincubated with this complex for 60 minutes.
(§3) To assemble the preformed TR-FRET complexes, each biotinylated RAS protein is diluted to 2 μM in an EDTA Buffer (20 mM HEPES, 50 mM sodium chloride, 10 mM EDTA, and 0.01% Tween) and incubated at room temperature for one hour. This mixture is then further diluted to 90 nM in an Assay Buffer (20 mM HEPES, 150 mM sodium chloride, 10 mM magnesium chloride, and 0.005% Tween) containing 15 nM of Terbium-Streptavidin (Invitrogen, catalog #PV3577) and 900 nM of BODIPY-GDP (Invitrogen, catalog #G22360) and incubated at room temperature for six hours. It should be noted that this preformed TR-FRET complex for each of the RAS proteins was made ahead of time, aliquoted and stored at −80° C. until the day of the experiment.
(§4) Once titrations are made, 10 nL of the diluted compounds is acoustically dispensed into a 384-well assay plate (Corning, catalog #3820) using an Echo 550 (Labcyte). Each well of the assay plate subsequently receives 3 μL of a specific 3× RAS preformed TR-FRET complex and 3 μL of Assay Buffer and is incubated at room temperature for 60 minutes (preincubation time). […] The final reaction in each well of 9 μL consists of 3 mM GTP, and the specific RAS and SOS proteins in the following concentrations: KRAS-G12C/SOS=3 nM/40 nM, KRAS-G12D/SOS=1 nM/40 nM, KRAS-G12V/SOS=1.25 nM/160 nM, HRAS/SOS=1.25 nM/40 nM, and NRAS/SOS=1.25 nM/40 nM.
as §1

[4] = molecular target: Recombinant KRAS-G12V (SEQ ID NO: 3) (Homo sapiens, UniProt P01116, G12V); assay: SOS-catalyzed guanine nucleotide exchange (GNE) assay, KRAS-G12V
Experimental: as §2, §3, §4, §1

[5] = system: NCI-H358 cells containing homozygous KRAS-G12C activating mutation (p-ERK); details: Homo sapiens, NCI-H358, 2 h, read-out: G12C H358 IC50 (nM)
Experimental: Procedure for Cellular Phospho-ERK Assay, G12C
NCI-H358 cells (ATCC® CRL-5807™), containing homozygous KRAS-G12C activating mutation, were cultured in T150 flask in growth medium (RPMI medium 1640-GlutaMAX™—I (ThermoFisher Scientific 61870) containing 10% fetal bovine serum (ThermoFisher Scientific 10091148)). The cells were harvested in growth medium after TrypLE (ThermoFisher scientific 12604021) digestion and were seeded in a 384-well collagen coated cell culture plate (Corning 356702) at a density of 15,000 cells/well, and incubated at 37° C., 5% CO2 overnight. […] RPMI medium 1640-GlutaMAX™—I was added to the intermediate plate and the contents of the intermediate plate were then transferred to the 384-well collagen coated cell culture plate, which was incubated at 37° C., 5% CO2 for 2 hours. After removal of medium from the collagen coated cell culture plate, cells were lysed in lysis buffer from Alpha SureFire® Ultra™ Multiplex p-ERK and total ERK assay kit (PerkinElmer MPSU-PTERK) containing Halt™ Protease and Phosphatase inhibitor cocktail (ThermoFisher Scientific 78446) at room temperature with constant shaking at 300 rpm for 30 minutes. The cell lysates were then transferred to an OptiPlate-384 plate (PerkinElmer 6005620), and the phosphorylation of ERK (p-ERK) and total ERK levels were detected by Alpha SureFire® Ultra™ Multiplex p-ERK kit and total ERK assay kit (PerkinElmer MPSU-PTERK) following the manufacturer's protocol. Assay plates were read on an EnVision Multimode Plate Reader (PerkinElmer), and the ratio of p-ERK vs. total ERK in each well was used as the final readout. Dose response curves were analyzed using a 4-parameter logistic model to calculate IC50 values using Spotfire software.

Recombinant KRAS-G12V (SEQ ID NO: 3), sequence (P01116 with tags, fused parts or gaps isoform P01116-2 G12V): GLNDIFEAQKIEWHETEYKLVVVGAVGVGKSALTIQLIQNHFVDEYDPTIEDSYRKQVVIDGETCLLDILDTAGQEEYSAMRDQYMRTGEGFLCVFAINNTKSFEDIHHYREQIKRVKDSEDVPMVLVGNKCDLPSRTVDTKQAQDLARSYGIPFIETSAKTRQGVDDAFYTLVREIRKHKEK
G13D, sequence (P01116 1-188 isoform P01116-2 G13D): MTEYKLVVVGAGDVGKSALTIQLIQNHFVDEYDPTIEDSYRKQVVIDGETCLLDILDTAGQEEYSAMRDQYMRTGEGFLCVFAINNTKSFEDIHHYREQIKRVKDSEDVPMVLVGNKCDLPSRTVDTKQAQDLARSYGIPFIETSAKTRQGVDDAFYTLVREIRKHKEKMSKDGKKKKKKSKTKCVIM
Recombinant KRAS-G12D (SEQ ID NO: 2), sequence (P01116 with tags, fused parts or gaps isoform P01116-2 G12D): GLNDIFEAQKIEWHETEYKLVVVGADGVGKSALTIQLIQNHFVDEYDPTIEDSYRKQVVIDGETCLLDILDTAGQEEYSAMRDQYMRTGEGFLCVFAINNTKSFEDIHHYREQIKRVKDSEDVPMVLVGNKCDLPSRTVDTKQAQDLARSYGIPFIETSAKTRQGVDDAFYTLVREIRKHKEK

IC50 [1]	IC50 [2]	IC50 [3]	IC50 [4]	IC50 [5]	SMILES
2 nM	132 nM	1 nM	2 nM	–	C#Cc1cccc2cc(O)cc(-c3c(F)cc4c(N5CCC[C@@](C)(O)C5)nc(OCC5(CN(C)C)CC5)nc4c3F)c12 (single isomer, unassigned) [Ex-11]
86 nM	–	163 nM	143 nM	–	CC1CN(c2nc(OC[C@@]34CCCN3C[C@H](F)C4)nc3c(F)c(-c4cc(O)cc5cccc(Cl)c45)c(F)cc23)CC(C)(O)C1 (single isomer, unassigned) [Ex-33]
291 nM	4690 nM	986 nM	168 nM	–	C#Cc1cccc2cccc(-c3c(F)cc4c(N5CCC[C@](C)(O)C5)nc(OC[C@@]56CCCN5C[C@H](F)C6)nc4c3F)c12 (single isomer, unassigned) [Ex-46]
–	1150 nM	–	–	–	COC1CCN(CC2(COc3nc(N4CCC[C@@](C)(O)C4)c4cc(F)c(-c5cc(O)cc6cccc(Cl)c56)c(F)c4n3)CC2)CC1 [Ex-5, (3R)-1-(7-(8-chloro-3-hydroxnagphthalen-1-yl)-6,8-difluoro-2-((1-((4-methoxypiperidin-1-yl)methyl)cyclopropyl)methoxy)quinazolin-4-yl)-3-methylpiperidin-3-ol]
–	3050 nM	–	–	–	C[C@@]1(O)CCCN(c2nc(OCC3(CN4CCC(F)CC4)CC3)nc3c(F)c(-c4cc(O)cc5cccc(Cl)c45)c(F)cc23)C1 [Ex-6, (3R)-1-(7-(8-chloro-3-hydroxynaphthalen-1-yl)-6,8-difluoro-2-((1-((4-fluoropiperidin-1-yl)methyl)cyclopropyl)methoxy)quin-azolin-4-yl)-3-methylpiperidin-3-ol]
–	95 nM	–	–	–	C#Cc1cccc2cc(O)cc(-c3c(F)cc4c(N5CCC[C@@](C)(O)C5)nc(OCC5(CN6CCC(OC)CC6)CC5)nc4c3F)c12 [Ex-7, (3R)-1-(7-(8-ethynyl-3-hydroxvnaphthalen-1-yl)-6,8-difluoro-2-((1-((4-methoxypiperidin-1-yl)methyl)cyclopropyl)methoxy)quinazolin-4-yl)-3-methylpiperidin-3-ol]
–	86 nM	–	–	41 nM	C#Cc1cccc2cc(O)cc(-c3c(F)cc4c(N5CCC[C@@](C)(O)C5)nc(OCC5(CN6CC[C@@H](F)C6)CC5)nc4c3F)c12 [Ex-12, (3R)-1-(7-(8-ethyny1-3-hydroxynaphthalen-1-yl)-6,8-difluoro-2-((1-(((R)-3-fluoropyrrolidin-1-yl)methyl)cyclopropyl)meth-oxy)quinazolin-4-yl)-3-methylpiperidin-3-ol]
5190 nM	–	1190 nM	1230 nM	–	CN(C)C[C@@]1(COc2nc(N3CCC[C@@](C)(O)C3)c3cc(F)c(-c4cccc5ccc(F)c(Cl)c45)c(F)c3n2)CC1(F)F [Ex-14, (3R)-1-(7-(8-chloro-7-fluoronaphthalen-1-yl)-2-(((R)-1-((dimethylamino)methyl)-2,2-difluorocyclopropyl)methoxy)-6,8-difluoroquinazolin-4-yl)-3-methylpiperidin-3-ol]
–	352 nM	–	–	123 nM	C#Cc1cccc2cc(O)cc(-c3ccc4c(N5CCC[C@@](C)(O)C5)nc(OCC5(CN(C)C)CC5)nc4c3F)c12 [Ex-16, (R)-1-(2-((1-((dimethylamino)methyl)cyclopropyl)methoxy)-7-(8-ethynyl-3-hydroxynaphthalen-1-yl)-8-fluoroquinazolin-4-yl)-3-methylpiperidin-3-ol]
–	1400 nM	–	–	611 nM	Nc1nc2c(-c3c(Cl)cc4c(N5CCCC(O)CC5)nc(OC[C@@]56CCCN5C[C@H](F)C6)nc4c3F)c(F)cc(F)c2o1 (stereo partly drawn) [Ex-25, 1-(7-(2-amino-5,7-difluorobenzo[d]oxazol-4-yl)-6-chloro-8-fluoro-2-(((2R,7aS)-2-fluorotetrahydro-1H-pyrrolizin-7a(5H)-yl)methoxy)quinazolin-4-yl)azepan-4-ol]
–	3840 nM	–	–	–	Oc1cc(-c2c(F)cc3c(N4CCC[C@@H](O)C4)nc(OC[C@@]45CCCN4C[C@H](F)C5)nc3c2F)c2c(Cl)cccc2c1 [Ex-27, (3R)-1-(7-(8-chloro-3-hydroxynaphthalen-1-yl)-6,8-difluoro-2-(((2R,7aS)-2-fluorotetrahydro-1H-pyrrolizin-7a(5H)-yl)methoxy)quinazolin-4-yl)piperidin-3-ol]
–	1220 nM	–	–	2260 nM	C[C@@H]1C[C@@H](O)CN1c1nc(OC[C@@]23CCCN2C[C@H](F)C3)nc2c(F)c(-c3cc(O)cc4cccc(Cl)c34)c(F)cc12 [Ex-28, (3R,5R)-1-(7-(8-chloro-3-hydroxynaphthalen-1-yl)-6,8-difluoro-2-(((2R,7aS)-2-fluorotetrahydro-1H-pyrrolizin-7a(5H)-yl)methoxy)quinazolin-4-yl)-5-methylpyrrolidin-3-ol]
–	3150 nM	–	–	512 nM	C[C@@]1(O)CCCN(c2nc(OC[C@]3(CO)CC3(F)F)nc3c(F)c(-c4cc(O)cc5cccc(Cl)c45)c(F)cc23)C1 [Ex-30, (3R)-1-(7-(8-chloro-3-hydroxynaphthalen-1-yl)-2-(((R)-2,2-difluoro-1-(hydroxymethyl)cyclo-propyl)methoxy)-6,8-difluoroquinazolin-4-yl)-3-methylpiperidin-3-ol]
–	4840 nM	–	–	1820 nM	Oc1cc(-c2c(F)cc3c(N4CCC[C@H](O)CC4)nc(OC[C@@]45CCCN4C[C@H](F)C5)nc3c2F)c2c(Cl)cccc2c1 [Ex-35, (4S)-1-(7-(8-chloro-3-hydroxynaphthalen-1-yl)-6,8-difluoro-2-(((2R,7aS)-2-fluorotetrahydro-1H-pyrrolizin-7a(5H)-yl)methoxy)quinazolin-4-yl)azepan-4-ol]
–	151 nM	–	–	48 nM	C[C@@]1(O)COCCN(c2nc(OC[C@@]34CCCN3C[C@H](F)C4)nc3c(F)c(-c4cc(O)cc5cccc(Cl)c45)c(F)cc23)C1 [Ex-37, (6S)-4-(7-(8-chloro-3-hydroxynaphthalen-1-yl)-6,8-difluoro-2-(((2R,7aS)-2-fluorotetrahydro-1H-pyrrolizin-7a(5H)-yl)methoxy)quinazolin-4-yl)-6-methyl-1,4-oxazepan-6-ol]
2660 nM	–	2710 nM	2290 nM	–	Cc1cc2[nH]ncc2c(-c2c(F)cc3c(N4CCC[C@@](C)(O)C4)nc(OCC4(CN5CC[C@@H](F)C5)CC4)nc3c2F)c1C [Ex-39, (3R)-1-(7-(5,6-dimethy1-1H-indazol-4-yl)-6,8-difluoro-2-((1-(((R)-3-fluoropyrrolidin-1-yl)methyl)cyclopropyl)methoxy)quinazolin-4-yl)-3-methylpiperidin-3-ol]
–	142 nM	–	–	59 nM	C#Cc1cccc2cc(O)cc(-c3c(F)cc4c(N5CCC[C@@](C)(O)C5)nc(OC[C@]5(CO)CC5(F)F)nc4c3F)c12 [Ex-44, (3R)-1-(2-(((R)-2,2-difluoro-1-(hydroxy-methyl)cyclopropyl)methoxy)-7-(8-ethynyl-3-hydroxynaphthalen-1-yl)-6,8-difluoroquinazolin-4-yl)-3-methylpiperidin-3-ol]
–	690 nM	–	–	427 nM	CN1CCC[C@H]1COc1nc(N2CCC[C@@](C)(O)C2)c2cc(F)c(-c3cc(O)cc4cccc(Cl)c34)c(F)c2n1 [Ex-49, (3R)-1-(7-(8-chloro-3-hydroxynaphthalen-1-yl)-6,8-difluoro-2-(((S)-1-methylpyrrolidin-2-yl)methoxy)quinazolin-4-yl)-3-methylpiperidin-3-ol trifluoracetate salt]
